In PubChem BioAssay AID463089 (NMMLSC, 2010):
The source made the active and inactive calls.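 How the source made its calls: active means compound whose binding-signal loss grows with dose, reaching half its maximum below 10 micromolar; inactive means the rest.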

Legend:
[1] = modulators of MEKK2-MEK5 PB1 interaction, dose response, biochemical, TR-FRET, Eu and Cy5 interference panels (AID 463089); settings: TR-FRET MEKK2-MEK5 PB1 binding; for response (panel-specific, % change): at 30 µM (top of the series)
[2] = biological target: Mitogen-activated protein kinase kinase kinase 2 (Homo sapiens) (UniProt Q9Y2U5); assay: as above; settings: TR-FRET MEKK2-MEK5 PB1 binding, TR-FRET binding assay; for response (panel-specific, % change): at 30 µM (top of the series)
Chain of Mitogen-activated protein kinase kinase kinase 2 (Homo sapiens) (Q9Y2U5 whole entry, looked up): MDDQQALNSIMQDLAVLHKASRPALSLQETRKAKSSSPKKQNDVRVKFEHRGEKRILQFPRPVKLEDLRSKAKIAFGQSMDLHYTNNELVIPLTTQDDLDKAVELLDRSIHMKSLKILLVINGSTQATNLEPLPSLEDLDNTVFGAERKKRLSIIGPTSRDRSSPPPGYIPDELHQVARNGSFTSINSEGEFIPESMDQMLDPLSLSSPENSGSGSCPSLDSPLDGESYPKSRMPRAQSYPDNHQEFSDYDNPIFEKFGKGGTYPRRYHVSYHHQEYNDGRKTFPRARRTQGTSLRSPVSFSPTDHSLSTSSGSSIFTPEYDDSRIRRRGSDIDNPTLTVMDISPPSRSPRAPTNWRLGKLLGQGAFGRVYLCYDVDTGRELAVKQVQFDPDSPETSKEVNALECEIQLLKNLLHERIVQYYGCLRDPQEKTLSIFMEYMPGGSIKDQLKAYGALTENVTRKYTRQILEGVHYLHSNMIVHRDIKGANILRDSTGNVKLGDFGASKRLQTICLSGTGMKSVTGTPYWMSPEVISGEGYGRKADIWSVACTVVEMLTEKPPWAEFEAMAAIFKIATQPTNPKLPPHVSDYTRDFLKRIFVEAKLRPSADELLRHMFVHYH

[3] = Cy5 fluorescence 665 nm counterscreen
[4] = Eu fluorescence 620 nm counterscreen

| Structure (SMILES) | response (panel-specific, % change) [1, 3] | EC50 [1, 4] [nM] | response (panel-specific, % change) [2] | response (panel-specific, % change) [1, 4] | EC50 [1, 3] [nM] | EC50 [2] [nM] |
| --- | --- | --- | --- | --- | --- | --- |
| CN1CCN(c2ccc(NC(=O)c3ccc(-c4ccc(Cl)cc4)o3)cc2)CC1 | inactive | – | – | inactive | – | – |
| Nc1cc2nc[nH]c2cc1N | inactive | 1500 | – | – | – | 2000 |
| COc1cccc(OC)c1-c1nn2c(-c3cc(-c4ccccc4)n[nH]3)nnc2s1 | inactive | – | – | inactive | – | 2200 |

Further lines, results first:

| response (panel-specific, % change) [1, 3] | EC50 [1, 4] [nM] | response (panel-specific, % change) [2] | response (panel-specific, % change) [1, 4] | EC50 [1, 3] [nM] | EC50 [2] [nM] | Structure (SMILES) |
| --- | --- | --- | --- | --- | --- | --- |
| inactive | 2000 | inactive | – | – | – | CCN1/C(=C/C(C)=C/c2sc3ccccc3[n+]2CC)Sc2ccccc21 |
| – | 1900 | inactive | – | 4100 | – | CCC(=C/c1sc2ccc3ccccc3c2[n+]1C)/C=C1\Sc2ccc3ccccc3c2N1C |
| inactive | 1600 | – | – | – | 3500 | CCNc1ccc2noc3c2c1C(=O)c1ccccc1-3 |
